Experimental data: PMC11675744, “Grape Pomace as a Source of Phenolics for the Inhibition of Starch Digestion Enzymes: A Comparative Study and Standardization of the Efficacy” (Foods, 2024)

Biological target: T1, rat intestinal α-glucosidase
T1 construct: gene Mgam; crude supernatant of rat intestinal acetone powder (Sigma N1377-5G), brush border enzymes, not purified
Assay: p-nitrophenol release, absorbance […] nm, five-point dose-response
Format: biochemical
Details: substrate p-nitrophenyl α-D-glucoside (1 mM stock, 200 µL in 1 mL), phosphate pH 6.8, 37 °C, 5 min pre-incubation; crude extract

I50: 100 µg/mL
SMILES: C[C@H]1O[C@H](O[C@H]2[C@H](O)[C@@H](O)[C@@H](O[C@H]3[C@H](O)[C@@H](O)C(O)O[C@@H]3CO)O[C@@H]2CO)[C@H](O)[C@@H](O)[C@@H]1N[C@H]1C=C(CO)[C@@H](O)[C@H](O)[C@H]1O (stereo partly shown) [acarbose]
